The record followed here is publication PMC3673537 (Bioorganic & medicinal chemistry, 2011).

SMILES strings stand for the structures. Marks after values point to notes of the source that are not given here. Some results are limits rather than exact numbers.

One assay relates to Tcp. Nature of the assay: Western blot against Tcp. Type of assay: cell-based, Vibrio cholerae. As to conditions: Supplementary data. (In general: In western blotting, separated proteins are transferred to a membrane and probed.)
In another assay the test system is HapR. The assay is described as follows: Western blot against HapR. The following applies: Supplementary data. Type of assay: cell-based, Vibrio cholerae.
For assay [1], the target named is T1, CqsS (Vibrio cholerae serotype O1, UniProt Q9KM66). Nature of the assay: Vibrio cholerae agonism bioassay. As to conditions: for % Response at the maximum concentration (50 μM): bioluminescence at 50 μM, with respect to CAI-1 at 100%; for agonist activity (in words): V. cholerae MM920 reporter, up to 50 μM.
T1 sequence (Q9KM66 whole entry, looked up): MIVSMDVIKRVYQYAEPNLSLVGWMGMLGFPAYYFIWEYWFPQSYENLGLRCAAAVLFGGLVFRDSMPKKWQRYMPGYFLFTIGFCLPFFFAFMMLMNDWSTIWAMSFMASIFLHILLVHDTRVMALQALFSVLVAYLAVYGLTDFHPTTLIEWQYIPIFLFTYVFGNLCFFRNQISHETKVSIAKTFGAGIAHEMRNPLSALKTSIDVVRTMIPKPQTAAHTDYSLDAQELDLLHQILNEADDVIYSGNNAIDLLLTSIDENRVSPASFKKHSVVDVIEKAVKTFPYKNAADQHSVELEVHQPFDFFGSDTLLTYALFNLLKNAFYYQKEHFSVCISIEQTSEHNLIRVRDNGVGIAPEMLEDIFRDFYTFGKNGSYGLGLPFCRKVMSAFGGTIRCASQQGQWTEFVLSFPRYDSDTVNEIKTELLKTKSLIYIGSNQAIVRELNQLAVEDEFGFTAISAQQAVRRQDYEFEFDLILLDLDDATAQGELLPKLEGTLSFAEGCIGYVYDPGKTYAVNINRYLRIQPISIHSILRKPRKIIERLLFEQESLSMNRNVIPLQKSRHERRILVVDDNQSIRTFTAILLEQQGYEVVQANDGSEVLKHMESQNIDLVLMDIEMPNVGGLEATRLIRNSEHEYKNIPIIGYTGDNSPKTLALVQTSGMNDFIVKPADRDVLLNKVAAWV
The target in assay [2] is T1, CqsS. Nature of the assay: Vibrio cholerae antagonism bioassay. As to conditions: for antagonist activity (in words): V. cholerae MM920 reporter with 1.0 μM CAI-1, up to 512 μM; for Ratio: IC50 (analog)/IC50 (Ph-CAI-1): using the IC50 of Ph-CAI-1 determined on the same day.

As for `CCCCCCCCCC(=O)[C@@H](O)CC` [Compound 1, (S)-3-hydroxytridecan-4-one], the “expression of Tcp” value in the assay on Tcp is “significant reduction”. Moreover, in the assay on HapR, the “expression of HapR” value was “concomitant expression”.

For the compound `CCCCCC(=O)[C@@H](O)CC` [Compound A1, (S)-3-Hydroxynonan-4-one], the “% Response at the maximum concentration (50 μM)” value at CqsS [1] is on record as 27 ^e %.

On to `CCCCCCC(=O)[C@@H](O)CC` [Compound A2, (S)-3-Hydroxydecan-4-one], for which, at CqsS [1], the “agonist activity (in words)” value was “essentially inactive” and the “% Response at the maximum concentration (50 μM)” value is given as 59 ^e %.

In the case of `CCCCCCCCCCCCC(=O)[C@@H](O)CC` [Compound A9, (S)-3-Hydroxyhexadecan-4-one], the “agonist activity (in words)” value on CqsS [1] was “essentially inactive”.

For the compound `CCCCCCCCCC(=O)C(Cl)CC` (stereo not shown) [Compound B8, Cl-CAI-1], the “agonist activity (in words)” value at CqsS [1] is “inactive”.

Turning to `CCCCCCCCCC(=O)C(O)C(C)(C)C` (stereo not shown) [Compound C4, 3-Hydroxy-2,2-dimethyltridecan-4-one], the “agonist activity (in words)” value at CqsS [1] was “inactive”.

Regarding `CCCCCCCCCC(=O)C(O)c1ccc(C)c(C)c1` (stereo not shown) [Compound C9, 1-Hydroxy-1-(3,4-dimethylphenyl)undecan-2-one], the “antagonist activity (in words)” value on CqsS [2] was “abolishes activity”.

Turning to `CCCCCCCCCC(=O)C(O)c1ccc(CC)cc1` (stereo not shown) [Compound C10, 1-(4-Ethylphenyl)-1-hydroxyundecan-2-one], at CqsS [2], the IC50 was above 500 µM, the “antagonist activity (in words)” value is “inactive” and the “Ratio: IC50 (analog)/IC50 (Ph-CAI-1)” value is recorded as above 9.

Regarding `CCCCCCCCCC(=O)C(O)c1ccc(CCC)cc1` (stereo not shown) [Compound C11, 1-Hydroxy-1-(4-propylphenyl)-undecan-2-one], at CqsS [2], the IC50 is above 500 µM, the “antagonist activity (in words)” value was “inactive” and the “Ratio: IC50 (analog)/IC50 (Ph-CAI-1)” value is above 9.

In the case of `CCCCCCCCCC(=O)C(O)c1ccc(Br)cc1` (stereo not shown) [Compound C28, 1-(4-Bromophenyl)-1-hydroxyundecan-2-one], the “antagonist activity (in words)” value at CqsS [2] is “weak antagonist”.

In general, IC50 refers to the concentration that inhibits the measured activity by half. Low readings indicate greater potency, high ones weaker potency.
